Here are results for 28 compounds from ChEMBL document CHEMBL1150358, “Substituted benzyl-pyrimidines targeting thymidine monophosphate kinase of Mycobacterium tuberculosis: synthesis and in vitro anti-mycobacterial activity” (Bioorg Med Chem, 2008).

Each structure is given as a SMILES string. Converted amounts (≈) assume the structure as drawn. The source made the active and inactive calls. The rule behind the calls is not given here.

For one experiment, the system named is Mycobacterium tuberculosis. The experiment can be described thus: Antimicrobial activity against Mycobacterium bovis BCG 1173P2 after 8 days. In kind it is functional. The following applies: variant bovis BCG.
In the case of `O=c1[nH]c(=O)n([C@H]2C[C@H](O)[C@@H](CO)O2)cc1Br` [BROXURIDINE], the outcome was inactive. The same measure, in the same setting: in the case of `CCCCCCc1ccc(Cn2cc(Cl)c(=O)[nH]c2=O)cc1` it was “inactive”; in that of `CCCCc1ccc(Cn2cc(Br)c(=O)[nH]c2=O)cc1`, “inactive”.

Consider `Cc1cn(Cc2ccc(CCCCC(N)=O)cc2)c(=O)[nH]c1=O`, for which the result was inactive. Same read-out and setting: next, `CCCCCCc1ccc(Cn2cc(Br)c(=O)[nH]c2=O)cc1`: “inactive”; `NC(=O)CCCCCc1ccc(Cn2cc(Br)c(=O)[nH]c2=O)cc1`: “inactive”. On to `NC(=O)CCCCc1ccc(Cn2cc(Br)c(=O)[nH]c2=O)cc1`, for which the result was inactive.

Turning to `Cc1cn(Cc2ccc(Br)cc2)c(=O)[nH]c1=O`, the result was inactive.

As to `Cc1cn([C@H]2C[C@H](O)[C@@H](CO)O2)c(=O)[nH]c1=O` [DOXRIBTIMINE], the result was inactive. Same read-out and setting: in the case of `CCCCc1ccc(Cn2cc(Cl)c(=O)[nH]c2=O)cc1` it was “inactive”.

The experiment is the same for the next values; noted with them: variant bovis BCG, 192 h.
Regarding `O=C(O)CCCc1ccc(Cn2ccc(=O)[nH]c2=O)cc1`, the MIC50 (as a rule, the lowest concentration that inhibits either 50% of growth or 50% of the strains tested, depending on the study) is 225 µg/mL (≈ 780 µM). The compound `Cc1cn(Cc2ccc(CCCCCC(=O)O)cc2)c(=O)[nH]c1=O` returned an MIC50 of 195 µg/mL (≈ 590 µM). Still for that read-out and setting: next, `NC(=O)CCCc1ccc(Cn2cc(Br)c(=O)[nH]c2=O)cc1`: 55 µg/mL (≈ 150 µM); `COC(=O)CCCc1ccc(Cn2cc(Br)c(=O)[nH]c2=O)cc1`: 180 µg/mL (≈ 472 µM); `O=C(O)CCCc1ccc(Cn2cc(Cl)c(=O)[nH]c2=O)cc1`: 45 µg/mL (≈ 139 µM). In turn, `Cc1cn(Cc2ccc(CCCCCC(N)=O)cc2)c(=O)[nH]c1=O` showed an MIC50 of 230 µg/mL (≈ 698 µM). Compared with the last compound, the MIC50 is about 5.1-fold higher. Still for that read-out and setting: next, `NC(=O)CCCCCc1ccc(Cn2cc(Cl)c(=O)[nH]c2=O)cc1`: 288 µg/mL (≈ 823 µM); `Cc1cn(Cc2ccc(C#CCCCC(=O)O)cc2)c(=O)[nH]c1=O`: 150 µg/mL (≈ 460 µM). The same measure, in the same setting: next, `Cc1cn(Cc2ccc(CCCCO)cc2)c(=O)[nH]c1=O`: 365 µg/mL (≈ 1270 µM); `O=C(O)CCCc1ccc(Cn2cc(Br)c(=O)[nH]c2=O)cc1`: 50 µg/mL (≈ 136 µM). Take `O=C(O)CCCCCc1ccc(Cn2cc(Br)c(=O)[nH]c2=O)cc1`: the MIC50 worked out at 80 µg/mL (≈ 202 µM). This MIC50 is about 1.6-fold higher than that of the compound before.

Compound `Cc1cn(Cc2ccc(CCCCC(=O)O)cc2)c(=O)[nH]c1=O` came in with an MIC50 of 120 µg/mL (≈ 379 µM). Compared with the last compound, the MIC50 is about 1.5-fold higher. Same read-out and setting: in the case of `COC(=O)CCCc1ccc(Cn2cc(Cl)c(=O)[nH]c2=O)cc1` it was 260 µg/mL (≈ 772 µM); in that of `NC(=O)CCCc1ccc(Cn2cc(Cl)c(=O)[nH]c2=O)cc1`, 51 µg/mL (≈ 159 µM). Still for that read-out and setting: in the case of `O=C(O)CCCCc1ccc(Cn2cc(Cl)c(=O)[nH]c2=O)cc1` it was 120 µg/mL (≈ 356 µM); in that of `NC(=O)CCCc1ccc(Cn2ccc(=O)[nH]c2=O)cc1`, 270 µg/mL (≈ 940 µM). The same measure, in the same setting: in the case of `O=C(O)CCCCc1ccc(Cn2cc(Br)c(=O)[nH]c2=O)cc1` it was 100 µg/mL (≈ 262 µM). `O=C(O)CCCCCc1ccc(Cn2cc(Cl)c(=O)[nH]c2=O)cc1`: the MIC50 was found to be 125 µg/mL (≈ 356 µM).
